One test addresses T1, Aurora-A (Homo sapiens, UniProt O14965).
T1 construct: purchased Upstate Biotechnologies (kinase profiler service)
The test is described as follows: kinase profiler, Aurora-A. Format: biochemical. Particulars: 10 μM compound, 100 μM ATP, mean of % control. As to the method:
(§1) Compound 45 was tested for its ability to function as a kinase inhibitor using the kinase profiler service from Upstate Biotechnologies. The general protocol employed is as follows: recombinant kinases were incubated with specific substrates, 10 mM MgAcetate, and [γ-^33P-ATP]. The reaction was initiated by the addition of MgATP mix. After incubation at room temperature for 40 minutes, the reaction was stopped by the addition of 5 μl of a 3% phosphoric acid solution. 10 μl of the reaction was then spotted on to a P30 filtermat and washed 3 times for 5 min. in 75 mM phosphoric acid and once in methanol prior to drying and scintillation counting. Each reaction was performed in duplicate with 100 μM ATP −/+10 μM compound 45. Results are presented in Table IV and are expressed as the mean of % control (no compound). PI 3-kinase-γ (PI3K-γ) activity was determined with the PIProfiler™ assay, which measures the binding of the GRP1 pleckstrin homology (PH) domain to PIP3, the product of PI3K acting on its physiological substrate PIP2.

A further test deals with T2, IKKα (Homo sapiens, UniProt O15111).
T2 construct: purchased Upstate Biotechnologies (kinase profiler service)
T2 sequence (O15111 whole entry): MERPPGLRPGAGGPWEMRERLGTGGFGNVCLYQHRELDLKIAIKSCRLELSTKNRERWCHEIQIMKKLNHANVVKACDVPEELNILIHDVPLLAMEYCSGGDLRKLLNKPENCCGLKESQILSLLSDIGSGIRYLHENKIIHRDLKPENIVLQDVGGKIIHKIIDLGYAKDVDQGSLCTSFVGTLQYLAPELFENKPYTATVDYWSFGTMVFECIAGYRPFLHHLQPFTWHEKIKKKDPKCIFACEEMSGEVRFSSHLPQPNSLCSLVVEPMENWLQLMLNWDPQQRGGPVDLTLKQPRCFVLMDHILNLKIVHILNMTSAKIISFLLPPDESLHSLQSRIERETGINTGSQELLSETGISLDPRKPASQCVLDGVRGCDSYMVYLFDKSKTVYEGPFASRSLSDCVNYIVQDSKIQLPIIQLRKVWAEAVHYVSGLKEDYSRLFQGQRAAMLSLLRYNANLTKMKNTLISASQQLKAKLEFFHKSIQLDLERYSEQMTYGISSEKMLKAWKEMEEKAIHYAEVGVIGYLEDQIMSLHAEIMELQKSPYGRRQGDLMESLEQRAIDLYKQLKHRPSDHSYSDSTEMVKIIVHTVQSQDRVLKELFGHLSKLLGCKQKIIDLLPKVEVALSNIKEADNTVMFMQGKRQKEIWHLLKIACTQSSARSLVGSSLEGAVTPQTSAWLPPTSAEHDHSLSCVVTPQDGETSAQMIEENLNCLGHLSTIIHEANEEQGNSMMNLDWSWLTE
Nature of the test: kinase profiler, IKKα. Format: biochemical. The conditions noted are these: 10 μM compound, 100 μM ATP, mean of % control. As to the method: as §1

The target of a further test is T3, Ret (Homo sapiens, UniProt P07949).
T3 construct: purchased Upstate Biotechnologies (kinase profiler service)
The test is described as follows: kinase profiler, Ret. It is filed as biochemical. The conditions noted are these: 10 μM compound, 100 μM ATP, mean of % control. On the procedure: as §1

Test [1] has as its system panel of 60 human cancer cell lines. The test is described as follows: NCI/DTP in vitro anticancer screen, 60 cell lines. It is filed as cell-based. Particulars: 60 cell; NCI panel of 60 human cancer cell lines, value per compound (FIG. 10A); read-out: GI50 (growth inhibition by 50%). On the procedure: The twenty-three compounds of Formula I shown below were evaluated for their antiproliferative effects in a panel of 60 human cancer cell lines as part of the in vitro anticancer screening services provided by the DTP (Developmental Therapeutics Program) of the US National Cancer Institute (NCI) U.S. National Cancer Institute (NCI) of the National Institutes of Health (NIH) in […], Md.
The NCI conducts a standard 48/72 hour 60 cell line assay and an in vitro time course assay as described in Alley et al. (Cancer Res (1988) 48:589). In the standard 60 cell line assay, a minimum of 5 concentrations of the test compound are tested at 10-fold dilutions against 60 cell lines and cell growth is assayed at 48 and 72 hours using a sulphorhodamine B assay. For the time course analysis, tumour cells are treated with the test compound at various time points, then washed and grown in medium free of the test compound until the end of the experiment at 144 hrs. This assay employs 20% FBS to better approximate the minimum c×t (concentrations and times) test compound exposure conditions that are required to achieve activity in vivo. Cell growth is quantified by an MTT assay (similar to the XTT assay described above) and the concentration of the test compound required for growth inhibition is determined. […]

Test [2] deals with MDA-MB-231 breast adenocarcinoma cells. The test is described as follows: morphological changes (vacuoles), MDA-MB-231. It is filed as cell-based, human. Particulars: MDA-MB-231 cells, treatment for 24 hours. An excerpt: These vacuoles are not formed in DMSO- or doxorubicin-treated cells. Moreover, the nuclear membrane is no longer evident in the phase-contrast images of cells treated with compound 45, even though the nucleus is still intact, as shown by DAPI staining.

The target in another test is T4, PRK2 (Homo sapiens, UniProt Q16513).
T4 construct: purchased Upstate Biotechnologies (kinase profiler service)
Nature of the test: kinase profiler, PRK2. Format: biochemical. Particulars: 10 μM compound, 100 μM ATP, mean of % control. As to the method: as §1

The target of another test is T5, EphA2 (Homo sapiens, UniProt P29317).
T5 construct: purchased Upstate Biotechnologies (kinase profiler service)
T5 sequence (P29317 24-976): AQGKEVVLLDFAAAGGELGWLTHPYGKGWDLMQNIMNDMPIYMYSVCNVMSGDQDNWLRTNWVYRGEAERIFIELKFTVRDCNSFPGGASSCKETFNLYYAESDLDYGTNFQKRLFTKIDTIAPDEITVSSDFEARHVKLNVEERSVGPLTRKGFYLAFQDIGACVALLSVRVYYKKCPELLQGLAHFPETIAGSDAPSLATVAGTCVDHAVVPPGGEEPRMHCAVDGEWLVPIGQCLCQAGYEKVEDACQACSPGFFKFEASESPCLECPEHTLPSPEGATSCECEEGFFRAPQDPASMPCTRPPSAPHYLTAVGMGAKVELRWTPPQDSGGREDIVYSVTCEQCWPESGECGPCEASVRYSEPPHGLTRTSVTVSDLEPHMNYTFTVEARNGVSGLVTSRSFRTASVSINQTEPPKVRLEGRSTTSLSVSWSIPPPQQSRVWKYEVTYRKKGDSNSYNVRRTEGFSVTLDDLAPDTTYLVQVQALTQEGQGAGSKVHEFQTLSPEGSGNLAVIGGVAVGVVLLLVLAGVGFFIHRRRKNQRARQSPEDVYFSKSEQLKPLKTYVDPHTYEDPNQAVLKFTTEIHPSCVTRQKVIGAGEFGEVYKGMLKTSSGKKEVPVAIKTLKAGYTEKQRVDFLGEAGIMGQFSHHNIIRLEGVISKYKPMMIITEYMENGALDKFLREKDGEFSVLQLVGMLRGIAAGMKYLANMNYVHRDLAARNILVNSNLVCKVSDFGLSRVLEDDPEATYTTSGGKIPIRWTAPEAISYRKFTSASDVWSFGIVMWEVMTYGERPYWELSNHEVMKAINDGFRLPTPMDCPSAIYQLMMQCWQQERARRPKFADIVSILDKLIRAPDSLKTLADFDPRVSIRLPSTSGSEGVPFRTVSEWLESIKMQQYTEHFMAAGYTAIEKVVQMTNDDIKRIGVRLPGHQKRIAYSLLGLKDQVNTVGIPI
Nature of the test: kinase profiler, EphA2. It is filed as biochemical. Particulars: 10 μM compound, 100 μM ATP, mean of % control. On the procedure: as §1

In another test the target is T6, PDK1 (Homo sapiens, UniProt O15530).
T6 construct: purchased Upstate Biotechnologies (kinase profiler service)
The test is described as follows: kinase profiler, PDK1. Format: biochemical. The conditions noted are these: 10 μM compound, 100 μM ATP, mean of % control. As to the method:
as §1

Another test has as its target T7, PKA (Homo sapiens, UniProt P17612).
T7 construct: purchased Upstate Biotechnologies (kinase profiler service)
Nature of the test: kinase profiler, PKA. Format: biochemical. The conditions noted are these: 10 μM compound, 100 μM ATP, mean of % control. On the procedure:
as §1

The next test has as its target T8, FGFR3 (Homo sapiens, UniProt P22607).
T8 construct: purchased Upstate Biotechnologies (kinase profiler service)
Nature of the test: kinase profiler, FGFR3. It is filed as biochemical. The conditions noted are these: 10 μM compound, 100 μM ATP, mean of % control. As to the method: as §1

A further test has as its target T9, Plk3 (Homo sapiens, UniProt Q9H4B4).
T9 construct: purchased Upstate Biotechnologies (kinase profiler service)
Nature of the test: kinase profiler, Plk3. Format: biochemical. The conditions noted are these: 10 μM compound, 100 μM ATP, mean of % control. On the procedure:
as §1

The target in the next test is T10, PKCμ (Homo sapiens, UniProt Q15139).
T10 construct: purchased Upstate Biotechnologies (kinase profiler service)
The test is described as follows: kinase profiler, PKCμ. Format: biochemical. Particulars: 10 μM compound, 100 μM ATP, mean of % control. On the procedure:
as §1

Another test addresses T11, JNK1α1 (Homo sapiens, UniProt P45983).
T11 construct: purchased Upstate Biotechnologies (kinase profiler service)
Nature of the test: kinase profiler, JNK1α1. It is filed as biochemical. The conditions noted are these: 10 μM compound, 100 μM ATP, mean of % control. On the procedure:
as §1

The target of another test is T12, PI3K-β (Homo sapiens, UniProt P42338).
T12 construct: purchased Upstate Biotechnologies (kinase profiler service)
The test is described as follows: kinase profiler, PI3K-β. Format: biochemical. The conditions noted are these: 10 μM compound, mean of % control.

A further test addresses T13, IGF-1R (Homo sapiens, UniProt P08069).
T13 construct: purchased Upstate Biotechnologies (kinase profiler service)
The test is described as follows: kinase profiler, IGF-1R. Format: biochemical. Particulars: 10 μM compound, 100 μM ATP, mean of % control. As to the method: as §1

The target of a further test is T14, PKD2 (Homo sapiens, UniProt Q9BZL6).
T14 construct: purchased Upstate Biotechnologies (kinase profiler service)
T14 sequence (Q9BZL6 whole entry): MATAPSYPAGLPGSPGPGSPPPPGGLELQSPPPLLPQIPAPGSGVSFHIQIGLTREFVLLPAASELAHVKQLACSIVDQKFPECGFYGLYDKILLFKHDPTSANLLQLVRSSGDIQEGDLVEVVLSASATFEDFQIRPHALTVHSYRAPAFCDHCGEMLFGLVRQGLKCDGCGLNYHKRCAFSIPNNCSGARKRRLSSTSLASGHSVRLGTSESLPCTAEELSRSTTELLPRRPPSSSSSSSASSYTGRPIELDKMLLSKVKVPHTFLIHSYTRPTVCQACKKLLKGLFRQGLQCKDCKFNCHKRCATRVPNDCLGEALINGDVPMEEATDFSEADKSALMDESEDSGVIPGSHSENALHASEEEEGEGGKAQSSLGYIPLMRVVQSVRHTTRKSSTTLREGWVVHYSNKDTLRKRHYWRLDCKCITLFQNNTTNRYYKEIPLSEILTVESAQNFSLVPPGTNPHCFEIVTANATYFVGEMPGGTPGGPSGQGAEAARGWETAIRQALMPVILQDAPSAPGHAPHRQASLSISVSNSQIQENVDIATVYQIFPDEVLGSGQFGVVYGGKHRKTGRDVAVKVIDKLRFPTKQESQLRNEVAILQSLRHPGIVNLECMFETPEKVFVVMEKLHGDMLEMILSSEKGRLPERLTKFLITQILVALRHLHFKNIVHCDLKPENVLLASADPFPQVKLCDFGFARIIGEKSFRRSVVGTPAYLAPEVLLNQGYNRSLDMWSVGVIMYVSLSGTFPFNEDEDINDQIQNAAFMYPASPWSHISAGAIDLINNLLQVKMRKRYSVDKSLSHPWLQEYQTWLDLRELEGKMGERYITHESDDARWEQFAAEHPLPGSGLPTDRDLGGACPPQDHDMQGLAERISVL
Nature of the test: kinase profiler, PKD2. It is filed as biochemical. The conditions noted are these: 10 μM compound, 100 μM ATP, mean of % control. On the procedure: as §1

Another test addresses T15, SAPK4 (Homo sapiens, UniProt O15264).
T15 construct: purchased Upstate Biotechnologies (kinase profiler service)
The test is described as follows: kinase profiler, SAPK4. It is filed as biochemical. The conditions noted are these: 10 μM compound, 100 μM ATP, mean of % control. As to the method:
as §1

A further test concerns the target T16, Pim-1 (Homo sapiens, UniProt P11309).
T16 construct: purchased Upstate Biotechnologies (kinase profiler service)
Nature of the test: kinase profiler, Pim-1. Particulars: 10 μM compound, 100 μM ATP, mean of % control. Format: biochemical. On the procedure:
as §1

In a further test the target is T17, JNK3 (Homo sapiens, UniProt P53779).
T17 construct: purchased Upstate Biotechnologies (kinase profiler service)
Nature of the test: kinase profiler, JNK3. Particulars: 10 μM compound, 100 μM ATP, mean of % control. Format: biochemical. On the procedure:
as §1

For a further test, the target named is T18, CK2 (Homo sapiens, UniProt P68400).
T18 construct: purchased Upstate Biotechnologies (kinase profiler service)
T18 sequence (P68400 whole entry): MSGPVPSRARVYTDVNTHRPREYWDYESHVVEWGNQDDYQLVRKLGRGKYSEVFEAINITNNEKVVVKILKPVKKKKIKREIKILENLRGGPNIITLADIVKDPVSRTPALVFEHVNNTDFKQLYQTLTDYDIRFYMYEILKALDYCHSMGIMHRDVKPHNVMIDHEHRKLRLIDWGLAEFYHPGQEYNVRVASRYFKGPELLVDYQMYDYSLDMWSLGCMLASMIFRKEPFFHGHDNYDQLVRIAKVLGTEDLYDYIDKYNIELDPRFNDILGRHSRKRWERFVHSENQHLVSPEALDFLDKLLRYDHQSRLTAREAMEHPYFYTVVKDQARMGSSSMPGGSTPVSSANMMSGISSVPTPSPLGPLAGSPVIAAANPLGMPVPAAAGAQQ
T18 sequence (P67870 whole entry partner): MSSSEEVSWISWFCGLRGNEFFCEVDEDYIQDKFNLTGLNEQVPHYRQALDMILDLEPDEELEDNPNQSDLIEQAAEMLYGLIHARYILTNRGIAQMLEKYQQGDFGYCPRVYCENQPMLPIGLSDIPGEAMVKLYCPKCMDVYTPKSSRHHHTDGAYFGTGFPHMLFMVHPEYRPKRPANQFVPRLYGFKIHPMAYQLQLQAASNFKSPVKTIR
The test is described as follows: kinase profiler, CK2. Particulars: 10 μM compound, 100 μM ATP, mean of % control. It is filed as biochemical. On the procedure:
as §1

A further test concerns the target T19, MAPK2 (Homo sapiens, UniProt P28482).
T19 construct: purchased Upstate Biotechnologies (kinase profiler service)
The test is described as follows: kinase profiler, MAPK2. It is filed as biochemical. Particulars: 10 μM compound, 100 μM ATP, mean of % control. On the procedure:
as §1

For a further test, the target named is T20, SAPK2a (Homo sapiens, UniProt Q16539).
T20 construct: purchased Upstate Biotechnologies (kinase profiler service)
T20 sequence (Q16539 whole entry): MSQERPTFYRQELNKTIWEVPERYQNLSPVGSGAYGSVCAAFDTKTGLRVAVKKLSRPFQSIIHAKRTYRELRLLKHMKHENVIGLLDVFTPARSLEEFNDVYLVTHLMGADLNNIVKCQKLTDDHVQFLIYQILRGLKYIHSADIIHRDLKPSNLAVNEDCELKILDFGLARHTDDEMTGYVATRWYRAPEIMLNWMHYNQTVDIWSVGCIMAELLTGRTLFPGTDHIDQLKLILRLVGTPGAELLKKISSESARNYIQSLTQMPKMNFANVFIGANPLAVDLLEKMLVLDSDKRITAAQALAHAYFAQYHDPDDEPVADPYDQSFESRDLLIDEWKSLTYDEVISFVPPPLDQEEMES
Nature of the test: kinase profiler, SAPK2a. It is filed as biochemical. Particulars: 10 μM compound, 100 μM ATP, mean of % control. As to the method: as §1

The next test concerns p70S6K. Nature of the test: kinase profiler, p70S6K. Format: biochemical, human. The conditions noted are these: 10 μM compound, 100 μM ATP, mean of % control. On the procedure:
as §1

T16 sequence (P11309 whole entry): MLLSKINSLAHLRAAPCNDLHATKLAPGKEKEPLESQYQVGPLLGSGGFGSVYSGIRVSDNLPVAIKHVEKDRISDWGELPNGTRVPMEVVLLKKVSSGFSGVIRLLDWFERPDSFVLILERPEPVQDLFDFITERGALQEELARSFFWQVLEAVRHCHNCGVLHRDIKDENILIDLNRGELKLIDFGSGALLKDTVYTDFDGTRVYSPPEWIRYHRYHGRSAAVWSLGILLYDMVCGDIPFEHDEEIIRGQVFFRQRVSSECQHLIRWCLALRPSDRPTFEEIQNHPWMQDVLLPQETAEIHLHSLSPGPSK
T1 sequence (O14965 whole entry): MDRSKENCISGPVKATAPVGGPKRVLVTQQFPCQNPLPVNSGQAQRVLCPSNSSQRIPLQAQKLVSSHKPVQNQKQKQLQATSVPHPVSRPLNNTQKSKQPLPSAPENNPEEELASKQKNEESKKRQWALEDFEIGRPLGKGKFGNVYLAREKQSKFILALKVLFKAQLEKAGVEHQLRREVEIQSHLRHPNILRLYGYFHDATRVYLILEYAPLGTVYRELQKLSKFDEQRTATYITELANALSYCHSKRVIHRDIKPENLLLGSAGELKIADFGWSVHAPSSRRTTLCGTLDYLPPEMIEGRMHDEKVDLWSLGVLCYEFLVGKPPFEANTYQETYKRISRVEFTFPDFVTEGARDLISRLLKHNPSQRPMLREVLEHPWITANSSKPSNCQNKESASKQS
T15 sequence (O15264 whole entry): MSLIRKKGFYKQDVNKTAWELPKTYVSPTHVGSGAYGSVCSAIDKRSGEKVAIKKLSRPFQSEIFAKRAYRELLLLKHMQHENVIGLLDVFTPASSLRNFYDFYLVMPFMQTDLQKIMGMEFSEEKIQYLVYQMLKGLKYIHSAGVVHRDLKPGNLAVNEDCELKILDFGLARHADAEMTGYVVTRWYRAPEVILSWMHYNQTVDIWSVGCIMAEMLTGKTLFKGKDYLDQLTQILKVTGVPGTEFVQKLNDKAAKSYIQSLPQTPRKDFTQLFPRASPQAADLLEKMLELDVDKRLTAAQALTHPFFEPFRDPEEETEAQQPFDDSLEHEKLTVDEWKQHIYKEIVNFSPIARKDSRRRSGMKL
T19 sequence (P28482 whole entry): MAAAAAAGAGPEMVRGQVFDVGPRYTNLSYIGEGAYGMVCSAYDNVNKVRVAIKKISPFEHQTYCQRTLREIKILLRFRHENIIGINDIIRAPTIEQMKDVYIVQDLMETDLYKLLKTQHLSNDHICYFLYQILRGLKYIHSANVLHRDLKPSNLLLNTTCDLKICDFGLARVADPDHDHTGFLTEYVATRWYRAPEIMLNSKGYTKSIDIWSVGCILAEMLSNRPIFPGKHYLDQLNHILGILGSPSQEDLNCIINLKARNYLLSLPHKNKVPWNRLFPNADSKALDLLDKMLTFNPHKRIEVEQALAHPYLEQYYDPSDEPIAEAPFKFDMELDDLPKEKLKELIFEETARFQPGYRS

By GI50 is commonly meant the concentration that inhibits growth by half. Turning to `Brc1ccc2[nH]cc(-c3nc4c5ccccc5c5ccccc5c4[nH]3)c2c1` [Compound 45], the activity at 10 µM at Aurora-A was 54%; on IKKα, 150%; on Ret it was 82%; on PRK2 it was 83%; at EphA2, 95%; on PDK1, 106%. The activity at 10 µM was 83% at PKA; 82% at FGFR3; 132% on Plk3; 90% at PKCμ; 85% on JNK1α1; 11% at PI3K-β. Moreover, the activity at 10 µM on IGF-1R turned out to be 80%; on PKD2, 52%; at SAPK4 it was 77%; at Pim-1, 70%; at JNK3, 121%; at CK2, 91%. The activity at 10 µM on MAPK2 was found to be 99%; on SAPK2a, 62%. Also, the GI50 in test [1] was 2000 nM. For the same compound, the formation of vacuoles result in [2] is on record as “formation of large vacuoles within the cytoplasm”. Further, the “% activity” value in the test on p70S6K is given as 64%.

Source of the values: US10080739B2, “Aryl imidazoles and their use as anti-cancer agents” (Aptose Biosciences Inc., priority 2003, dated 2018).
